Source: patent US10370387B2, “Tricyclic fused thiophene derivatives as JAK inhibitors” (Incyte Corporation, priority 2012, dated 2019)

Tested on: human JAK1
Assay: In vitro JAK kinase assay (HTRF, phosphorylation of biotinylated peptide), JAK1
Type: biochemical
Conditions: ratio of JAK2 IC50 to JAK1 IC50, 1 mM ATP
Protocol: Compounds herein were tested for inhibitory activity of JAK targets according to the following in vitro assay described in Park et al., Analytical Biochemistry 1999, 269, 94-104. The catalytic domains of human JAK1 (a.a. 837-1142), JAK2 (a.a. 828-1132) and JAK3 (a.a. 781-1124) were expressed using baculovirus in insect cells and purified. The catalytic activity of JAK1, JAK2 or JAK3 was assayed by measuring the phosphorylation of a biotinylated peptide. The phosphorylated peptide was detected by homogenous time resolved fluorescence (HTRF). IC50s of compounds were measured for each kinase in the 40 μL reactions that contain the enzyme, ATP and 500 nM peptide in 50 mM Tris (pH 7.8) buffer with 100 mM NaCl, 5 mM DTT, and 0.1 mg/mL (0.01%) BSA. For the 1 mM IC50 measurements, ATP concentration in the reactions was 1 mM. Reactions were carried out at room temperature for 1 hour and then stopped with 20 μL 45 mM EDTA, 300 nM SA-APC, 6 nM Eu-Py20 in assay buffer (Perkin Elmer, Boston, Mass.). Binding to the Europium labeled antibody took place for 40 minutes and HTRF signal was measured on a PHERA star plate reader (BMG, Cary, N.C.). The Example compounds were each tested in the Example A assay (see Table 1 for data for the compounds of the examples as tested by the assay of Example A at 1 mM ATP).

Question: For `C[C@@H](O)c1nc2cnc3ccsc3c2n1[C@H]1CC[C@@H](CC#N)C1.O=C(O)C(F)(F)F` [Example 49, ((1R,3S)-3-{2-[(1R)-1-Hydroxyethyl]-1H-imidazo[4,5-d]thieno[3,2-b]pyridin-1-yl}cyclopentyl)acetonitrile trifluoroacetate], which JAK2/JAK1 is on record?
Answer: >10

Question: Which JAK2/JAK1 does the source give for `CCC(=O)NC[C@H]1CC[C@H](n2c(CC#N)nc3cnc4ccsc4c32)CC1` [Example 89, N-({trans-4-[2-(Cyanomethyl)-1H-imidazo[4,5-d]thieno[3,2-b]pyridin-1-yl]cyclohexyl}methyl)propanamide] here?
Answer: >10

Question: How did the JAK2/JAK1 turn out when `C[C@@H](O)c1nc2cnc3ccsc3c2n1[C@H]1CCN(CCCC(F)(F)F)C1` [Example 64, (1R)-1-{1-[(3S)-1-(4,4,4-Trifluorobutyl)pyrrolidin-3-yl]-1H-imidazo[4,5-d]thieno[3,2-b]pyridin-2-yl}ethanol] was run?
Answer: >10

Question: For `C[C@@H](O)c1nc2cnc3ccsc3c2n1[C@H]1CCCN(C(=O)CCC#N)C1` [Example 58, 4-((3S)-3-{2-[(1R)-1-Hydroxyethyl]-1H-imidazo[4,5-d]thieno[3,2-b]pyridin-1-yl}piperidin-1-yl)-4-oxobutanenitrile], which JAK2/JAK1 is on record?
Answer: >10

Question: With `C[C@@H](O)c1nc2cnc3ccsc3c2n1[C@H]1CCN(CCCCC#N)C1` [Example 66, 5-((3S)-3-{2-[(1R)-1-Hydroxyethyl]-1H-imidazo[4,5-d]thieno[3,2-b]pyridin-1-yl}pyrrolidin-1-yl)pentanenitrile] as the compound, how does the JAK2/JAK1 read?
Answer: >10

Question: Which JAK2/JAK1 does the source give for `COC(=O)NC[C@H]1CC[C@H](n2c(CC#N)nc3cnc4ccsc4c32)CC1` [Example 86, Methyl ({trans-4-[2-(cyanomethyl)-1H-imidazo[4,5-d]thieno[3,2-b]pyridin-1-yl]cyclohexyl}methyl)carbamate] here?
Answer: >10

Question: With `C[C@@H](O)c1nc2cnc3ccsc3c2n1[C@H]1CCCN(C(=O)CCC(F)(F)F)C1` [Example 52, (1R)-1-{1-[(3S)-1-(4,4,4-Trifluorobutanoyl)piperidin-3-yl]-1H-imidazo[4,5-d]thieno[3,2-b]pyridin-2-yl}ethanol] as the compound, how does the JAK2/JAK1 read?
Answer: >10

Question: Which JAK2/JAK1 does the source give for `C[C@@H](O)c1nc2cnc3ccsc3c2n1[C@H]1CC[C@H](CNS(C)(=O)=O)CC1` [Example 80, N-[(trans-4-{2-[(1R)-1-Hydroxyethyl]-1H-imidazo[4,5-d]thieno[3,2-b]pyridin-1-yl}cyclohexyl)methyl]methanesulfonamide] here?
Answer: >10

Question: Which JAK2/JAK1 does the source give for `C[C@@H](O)c1nc2cnc3ccsc3c2n1[C@@H]1CC[C@@H](CC#N)OC1` [Example 44, ((2S,5R)-5-{2-[(1R)-1-Hydroxyethyl]-1H-imidazo[4,5-d]thieno[3,2-b]pyridin-1-yl}tetrahydro-2H-pyran-2-yl)acetonitrile] here?
Answer: >10

Question: How did the JAK2/JAK1 turn out when `C[C@@H](O)c1nc2cnc3ccsc3c2n1C1CCC(O)(CC#N)CC1` (single isomer, unassigned) [24 (first peak)] was run?
Answer: >10

Question: Which JAK2/JAK1 does the source give for `N#CC[C@H]1CC[C@H](n2c(CO)nc3cnc4ccsc4c32)CO1` [Example 91, {(2R,5S)-5-[2-(Hydroxymethyl)-1H-imidazo[4,5-d]thieno[3,2-b]pyridin-1-yl]tetrahydro-2H-pyran-2-yl}acetonitrile] here?
Answer: >10

Question: With `CCOC(=O)N1CCC[C@H](n2c([C@@H](C)O)nc3cnc4ccsc4c32)C1` [Example 50, Ethyl (3S)-3-{2-[(1R)-1-hydroxyethyl]-1H-imidazo[4,5-d]thieno[3,2-b]pyridin-1-yl}piperidine-1-carboxylate] as the compound, how does the JAK2/JAK1 read?
Answer: >10

Question: `C[C@@H](O)c1nc2cnc3ccsc3c2n1[C@H]1CC[C@@H](C#N)CC1` [Example 7, cis-4-{2-[(1R)-1-Hydroxyethyl]-1H-imidazo[4,5-d]thieno[3,2-b]pyridin-1-yl}cyclohexanecarbonitrile] was tested. Which JAK2/JAK1 did it give?
Answer: >10

Question: `C[C@@H](O)c1nc2cnc3ccsc3c2n1[C@H]1CCCN(C(=O)CCCC#N)C1` [Example 59, 5-((3S)-3-{2-[(1R)-1-Hydroxyethyl]-1H-imidazo[4,5-d]thieno[3,2-b]pyridin-1-yl}piperidin-1-yl)-5-oxopentanenitrile] was tested. Which JAK2/JAK1 did it give?
Answer: >10
